Patent publication US9512074B2, “Radiolabeled inhibitors of the amino acid transporters ASCT1 and ASCT2” (The University of Montana, priority 2011, dated 2016)

Assays:
Human ASCT1 = target: T1, Human ASCT1 (Homo sapiens, UniProt P43007); test: Inhibition of anion leak current, two-electrode voltage clamp in Xenopus oocytes expressing human ASCT1; type: cell-based; conditions: for Ki: Xenopus oocytes expressing human ASCT1, held at −20 mV, * = actual Ki, others Ki estimates, read-out: Ki (μM) ACST1
T1 construct: expressed in transfected cells; host or cells: Xenopus laevis oocytes (cRNA microinjection)
T1 sequence (P43007 1-532): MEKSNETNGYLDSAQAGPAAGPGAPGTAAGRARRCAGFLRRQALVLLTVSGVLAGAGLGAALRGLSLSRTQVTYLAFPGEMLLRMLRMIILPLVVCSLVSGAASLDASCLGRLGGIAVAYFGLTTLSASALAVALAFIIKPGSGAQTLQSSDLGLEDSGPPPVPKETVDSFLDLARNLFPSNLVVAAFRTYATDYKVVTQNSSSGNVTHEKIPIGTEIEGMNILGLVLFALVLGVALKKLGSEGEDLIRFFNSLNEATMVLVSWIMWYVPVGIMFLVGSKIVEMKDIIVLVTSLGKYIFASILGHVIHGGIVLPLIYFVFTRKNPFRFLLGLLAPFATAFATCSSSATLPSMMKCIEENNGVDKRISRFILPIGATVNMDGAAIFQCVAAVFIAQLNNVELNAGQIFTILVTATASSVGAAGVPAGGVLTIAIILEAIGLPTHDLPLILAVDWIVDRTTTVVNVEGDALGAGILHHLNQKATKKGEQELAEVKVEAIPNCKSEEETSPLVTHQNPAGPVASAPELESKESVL
Experimental: (§1) Human ASCT1 and murine ASCT2 cRNA were microinjected in stage V-VI oocytes. Uncoupled anion currents associated with the transport of substrate were recorded 3-5 days later as previously described (Zerangue & Kavanaugh, 1996). Recording solution contained 50 mM NaCl, 50 mM NaSCN, 2 mM KCl, 1 mM MgCl2, 1.8 mM CaCl2, and 5 mM HEPES (pH 7.4). Using two-electrode voltage clamp (TEVC), oocytes were held at −20 mV. Microelectrodes were filled with 3M KCl and had resistances from 1 to 3 MΩ. Recordings were performed at 22° C. with a Geneclamp 500 amplifier connected to a PowerLab 2/26 (AD instruments). The digital output was interfaced to a MacBook Pro (Macintosh) using Chart v7.1.2 software. The currents were low-pass filtered at 10 Hz and acquired at 20 Hz. Data was analyzed offline and modeling and fitting of substrate concentration-dependence of the currents was performed with Kaleidagraph software (v 4.04). The concentration dependent percent block of the anion leak or substrate activation of the anion current were fit with the Michaelis-Menten equation (Ianion=Imax×[Drug]/(Km+[Drug])) to define the Ki of inhibition or the apparent affinity (Km) of transport, respectively.

murine ASCT2 = target: T2, murine ASCT2 (Mus musculus, UniProt P51912); test: Inhibition of anion leak current, two-electrode voltage clamp in Xenopus oocytes expressing mouse ASCT2; type: cell-based; conditions: for Ki: Xenopus oocytes expressing mouse ASCT2, held at −20 mV, * = actual Ki, others Ki estimates
T2 construct: expressed in transfected cells; host or cells: Xenopus laevis oocytes (cRNA microinjection)
T2 sequence (P51912 1-553): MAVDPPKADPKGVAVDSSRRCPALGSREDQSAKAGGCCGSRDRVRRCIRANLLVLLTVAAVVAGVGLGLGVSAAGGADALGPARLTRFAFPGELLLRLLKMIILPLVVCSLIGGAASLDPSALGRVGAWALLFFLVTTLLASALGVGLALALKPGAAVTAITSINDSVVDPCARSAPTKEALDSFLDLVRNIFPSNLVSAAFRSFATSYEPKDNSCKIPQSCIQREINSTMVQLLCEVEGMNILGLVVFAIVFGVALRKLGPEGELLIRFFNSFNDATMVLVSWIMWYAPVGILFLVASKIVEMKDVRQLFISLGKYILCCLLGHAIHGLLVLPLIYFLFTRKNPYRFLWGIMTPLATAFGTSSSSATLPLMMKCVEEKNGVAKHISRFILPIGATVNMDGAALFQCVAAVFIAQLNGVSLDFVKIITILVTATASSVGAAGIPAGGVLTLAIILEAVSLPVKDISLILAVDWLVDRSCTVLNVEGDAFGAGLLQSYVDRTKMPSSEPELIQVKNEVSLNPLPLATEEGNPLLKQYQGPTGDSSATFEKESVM
Experimental: as §1

[1] = 300 μM, −20 mV, opposite the current induced by substrate

Ki (Human ASCT1) [µM]	Ki (murine ASCT2) [µM]	block of leak current in mASCT2 (FIG. 4) (murine ASCT2; [1])	block of leak current in hASCT1 (FIG. 4) (Human ASCT1; [1])	SMILES
150	141	–	–	O=C(O)[C@H]1NC[C@@H](Oc2ccccc2)C1O (stereo in doubt) [CSE118, (2S,3S,4R)-3-hydroxy-4-phenoxy-proline]
> 500	926	–	–	C[C@]1(O)CN[C@H](C(=O)O)C1 [CSE95, cis-4-methyl-trans-4-hydroxy-L-proline]
> 500	1080	–	–	C[C@@]1(O)CN[C@H](C(=O)O)C1 [CSE96, cis-4-hydroxy-trans-4-methyl-L-proline]
332	1130	–	–	O=C(O)[C@H]1NC[C@H](O)[C@H]1c1ccccc1 [CSE103, (2S,3S,4R)-3-phenyl-4-hydroxy-proline]
> 500	> 500	–	–	O=C(O)[C@H]1NC[C@@H](c2ccccc2)[C@@H]1O [CSE104, (2S,3S,4R)-3-hydroxy-4-phenyl-proline]
564	922	–	–	C[C@H]1[C@@H](C(=O)O)NC[C@@H]1O [CSE109]
1050	1150	–	–	C[C@@H]1CN[C@H](C(=O)O)[C@H]1O [CSE110]
493	828	–	–	O=C(O)[C@H]1NC[C@H](OCc2ccccc2)[C@H]1O [CSE113, cis-3-hydroxy-trans-4-benzyloxy-L-proline]
214	235	–	–	CO[C@@H]1CN[C@H](C(=O)O)[C@H]1O [CSE115, trans-3-hydroxy-cis-4-methoxy-L-proline]
594	502	–	–	O=C(O)[C@H]1NC[C@H](O)[C@H]1Oc1ccccc1 [CSE117, (2S,3S,4S)-3-phenoxy-4-hydroxy-proline]
39	69	blocking a leak current	–	O=C(O)[C@H]1NC[C@@H](OCc2ccccc2)[C@@H]1O [CSE121, trans-3-hydroxy-cis-4-benzyloxy-L-proline]
237	268	–	blocking a leak current	CC(C)O[C@@H]1CN[C@H](C(=O)O)[C@H]1O [CSE122]
481	600	–	–	CO[C@H]1CN[C@H](C(=O)O)[C@@H]1O [CSE124]
> 500	> 500	–	–	CC(C)O[C@H]1CN[C@H](C(=O)O)[C@@H]1O [CSE127, cis-3-hydroxy-trans-4-isopropoxy-L-proline]
13	10	–	–	O=C(O)[C@H]1NC[C@@H](OCc2cccc(Oc3ccccc3)c2)[C@@H]1O [CSE130]
0.31	0.24	–	–	O=C(O)[C@H]1NC[C@@H](OCc2ccc(-c3ccccc3)cc2)[C@@H]1O [CSE131, (2S,3R,4R)-3-hydroxy-4-o-methyl-p-biphenyl-proline]
~10	~10	–	–	O=C(O)[C@H]1NC[C@@H](OCc2cccc3ccccc23)[C@@H]1O [CSE132]

SMILES	Ki (Human ASCT1) [µM]	Ki (murine ASCT2) [µM]	block of leak current in mASCT2 (FIG. 4) (murine ASCT2; [1])	block of leak current in hASCT1 (FIG. 4) (Human ASCT1; [1])
O=C(O)[C@@H]1C[C@H](O)CN1 [CSE111]	805	872	–	–
